From the supplement of paper PMC10307832 come the findings set out here.

What all share (test): relative viability (nuclei count vs DMSO), 5 days (fraction); higher = more cells survive
Compound in the experiment “Olaparib + Foretinib”: O=C(c1cc(Cc2n[nH]c(=O)c3ccccc23)ccc1F)N1CCN(C(=O)C2CC2)CC1 [Olaparib] + COc1cc2c(Oc3ccc(NC(=O)C4(C(=O)Nc5ccc(F)cc5)CC4)cc3F)ccnc2cc1OCCCN1CCOCC1 [Foretinib] (partner 0.25 µM)
Put shortly:
(§1)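 After 5 days of treatment, lung cancer cells in 1536-well plates were fixed and stained in a single step (final 0.05% Triton X-100, 1% formaldehyde, 1 ug/ml Hoechst) and their nuclei counted on 4× images. Treatment had been applied by pin tool the day after seeding as one drug alone or as a fixed anchor-drug dose with five library-drug doses (not always all listed) in √10 steps. Relative viability is the nuclei count of treated wells divided by that of vehicle wells, and values are medians of duplicate plates.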

Compound in the experiment “Crizotinib + Pemetrexed”: C[C@@H](Oc1cc(-c2cnn(C3CCNCC3)c2)cnc1N)c1c(Cl)ccc(F)c1Cl [Crizotinib] + Nc1nc2[nH]cc(CCc3ccc(C(=O)N[C@@H](CCC(=O)O)C(=O)O)cc3)c2c(=O)[nH]1 [Pemetrexed] (partner 0.2 µM)
The method, boiled down:
as §1

Compound in the experiment “Carfilzomib + OSI-027”: CC(C)C[C@H](NC(=O)[C@H](CCc1ccccc1)NC(=O)CN1CCOCC1)C(=O)N[C@@H](Cc1ccccc1)C(=O)N[C@@H](CC(C)C)C(=O)[C@@]1(C)CO1 [Carfilzomib] + COc1cccc2cc(-c3nc([C@H]4CC[C@H](C(=O)O)CC4)n4ncnc(N)c34)[nH]c12 [OSI-027] (partner 0.5 µM)
Put shortly: as §1

Compound in the experiment “Olaparib + Trametinib”: O=C(c1cc(Cc2n[nH]c(=O)c3ccccc23)ccc1F)N1CCN(C(=O)C2CC2)CC1 [Olaparib] + CC(=O)Nc1cccc(-n2c(=O)n(C3CC3)c(=O)c3c(Nc4ccc(I)cc4F)n(C)c(=O)c(C)c32)c1 [Trametinib] (partner 0.02 µM)
The method, boiled down: as §1

In the case of HCC-366, the relative viability was found to be 0.875 with Olaparib + Foretinib (first compound 0.08 µM); 0.908 with Olaparib + Foretinib (first compound 0.253 µM); 0.889 with Olaparib + Foretinib (first compound 2.53 µM); 0.636 with Olaparib + Foretinib (first compound 8 µM); 0.166 with Crizotinib + Pemetrexed (first compound 0.01 µM); 0.154 in the experiment with Crizotinib + Pemetrexed (first compound 0.03162 µM). The relative viability was found to be 0.167 with Crizotinib + Pemetrexed (first compound 0.1 µM); 0.202 with Crizotinib + Pemetrexed (first compound 1 µM); 0.914 in the experiment with Carfilzomib + OSI-027 (first compound 0.001 µM); 1.02 with Carfilzomib + OSI-027 (first compound 0.003162 µM); 1.12 in the experiment with Carfilzomib + OSI-027 (first compound 0.01 µM); 0.839 with Carfilzomib + OSI-027 (first compound 0.03162 µM). For the same cell line, the relative viability was found to be 0.035 with Carfilzomib + OSI-027 (first compound 0.1 µM); 0.311 in the experiment with Olaparib + Trametinib (first compound 0.08 µM); 0.311 with Olaparib + Trametinib (first compound 0.253 µM); 0.268 in the experiment with Olaparib + Trametinib (first compound 2.53 µM); 0.214 with Olaparib + Trametinib (first compound 8 µM).

Regarding HOP-62, the relative viability with Olaparib + Foretinib (first compound 0.08 µM) came out at 1.19; in the experiment with Olaparib + Foretinib (first compound 0.253 µM), 1.13; with Olaparib + Foretinib (first compound 2.53 µM), 0.892; in the experiment with Olaparib + Foretinib (first compound 8 µM), 0.774; in the experiment with Crizotinib + Pemetrexed (first compound 0.01 µM), 0.347; with Crizotinib + Pemetrexed (first compound 0.03162 µM), 0.266. The relative viability came out at 0.331 with Crizotinib + Pemetrexed (first compound 0.1 µM); 0.28 with Crizotinib + Pemetrexed (first compound 0.3162 µM); 0.31 with Crizotinib + Pemetrexed (first compound 1 µM); 0.892 in the experiment with Carfilzomib + OSI-027 (first compound 0.001 µM); 0.899 in the experiment with Carfilzomib + OSI-027 (first compound 0.003162 µM); 0.575 with Carfilzomib + OSI-027 (first compound 0.01 µM). Also, the relative viability was 0.317 with Carfilzomib + OSI-027 (first compound 0.03162 µM); 0.083 with Carfilzomib + OSI-027 (first compound 0.1 µM); 0.358 with Olaparib + Trametinib (first compound 0.08 µM); 0.359 with Olaparib + Trametinib (first compound 0.253 µM); 0.393 in the experiment with Olaparib + Trametinib (first compound 2.53 µM); 0.333 with Olaparib + Trametinib (first compound 8 µM).

Turning to NCI-H1734, the relative viability stood at 0.885 with Olaparib + Foretinib (first compound 0.08 µM); 0.782 with Olaparib + Foretinib (first compound 0.253 µM); 0.851 with Olaparib + Foretinib (first compound 2.53 µM); 0.637 with Olaparib + Foretinib (first compound 8 µM); 0.411 in the experiment with Crizotinib + Pemetrexed (first compound 0.01 µM); 0.442 in the experiment with Crizotinib + Pemetrexed (first compound 0.03162 µM). Further, the relative viability in the experiment with Crizotinib + Pemetrexed (first compound 0.1 µM) came to 0.403; with Crizotinib + Pemetrexed (first compound 1 µM) it was 0.395; with Carfilzomib + OSI-027 (first compound 0.001 µM) it was 0.62; with Carfilzomib + OSI-027 (first compound 0.003162 µM) it was 0.683; with Carfilzomib + OSI-027 (first compound 0.01 µM) it was 0.585; with Carfilzomib + OSI-027 (first compound 0.03162 µM), 0.222. Besides, the relative viability in the experiment with Carfilzomib + OSI-027 (first compound 0.1 µM) came to 0.138; with Olaparib + Trametinib (first compound 0.08 µM), 0.688; with Olaparib + Trametinib (first compound 0.253 µM) it was 0.583; with Olaparib + Trametinib (first compound 2.53 µM), 0.718; with Olaparib + Trametinib (first compound 8 µM), 0.565.

Regarding SW 900, the relative viability worked out at 0.999 in the experiment with Olaparib + Foretinib (first compound 0.08 µM); 0.744 with Olaparib + Foretinib (first compound 0.253 µM); 0.994 with Olaparib + Foretinib (first compound 2.53 µM); 0.659 with Olaparib + Foretinib (first compound 8 µM); 0.505 with Crizotinib + Pemetrexed (first compound 0.01 µM); 0.437 with Crizotinib + Pemetrexed (first compound 0.03162 µM). The relative viability came out at 0.493 with Crizotinib + Pemetrexed (first compound 0.1 µM); 0.476 with Crizotinib + Pemetrexed (first compound 0.3162 µM); 0.466 with Crizotinib + Pemetrexed (first compound 1 µM); 0.451 with Carfilzomib + OSI-027 (first compound 0.001 µM); 0.362 with Carfilzomib + OSI-027 (first compound 0.003162 µM); 0.114 with Carfilzomib + OSI-027 (first compound 0.01 µM). Also, the relative viability with Carfilzomib + OSI-027 (first compound 0.03162 µM) stood at 0.0786; with Carfilzomib + OSI-027 (first compound 0.1 µM), 0.135; with Olaparib + Trametinib (first compound 0.08 µM), 0.867; in the experiment with Olaparib + Trametinib (first compound 0.253 µM), 0.758; with Olaparib + Trametinib (first compound 2.53 µM), 0.85; in the experiment with Olaparib + Trametinib (first compound 8 µM), 0.815.

Regarding ChaGo-K-1, the relative viability in the experiment with Olaparib + Foretinib (first compound 0.08 µM) worked out at 0.872; in the experiment with Olaparib + Foretinib (first compound 0.253 µM), 0.868; with Olaparib + Foretinib (first compound 2.53 µM), 0.763; in the experiment with Olaparib + Foretinib (first compound 8 µM) it was 0.608; with Crizotinib + Pemetrexed (first compound 0.01 µM), 0.253; in the experiment with Crizotinib + Pemetrexed (first compound 0.03162 µM), 0.249. For the same cell line, the relative viability amounted to 0.253 with Crizotinib + Pemetrexed (first compound 0.1 µM); 0.241 in the experiment with Crizotinib + Pemetrexed (first compound 0.3162 µM); 0.261 with Crizotinib + Pemetrexed (first compound 1 µM); 0.414 in the experiment with Carfilzomib + OSI-027 (first compound 0.001 µM); 0.576 with Carfilzomib + OSI-027 (first compound 0.003162 µM); 0.659 with Carfilzomib + OSI-027 (first compound 0.01 µM). In addition, the relative viability in the experiment with Carfilzomib + OSI-027 (first compound 0.03162 µM) amounted to 0.554; with Carfilzomib + OSI-027 (first compound 0.1 µM), 0.176; with Olaparib + Trametinib (first compound 0.08 µM), 0.949; with Olaparib + Trametinib (first compound 0.253 µM), 0.792; in the experiment with Olaparib + Trametinib (first compound 2.53 µM), 0.819; in the experiment with Olaparib + Trametinib (first compound 8 µM), 0.735.

Consider NCI-H2405, for which the relative viability in the experiment with Olaparib + Foretinib (first compound 0.08 µM) worked out at 1.11; with Olaparib + Foretinib (first compound 0.253 µM), 1.01; with Olaparib + Foretinib (first compound 2.53 µM), 0.946; with Olaparib + Foretinib (first compound 8 µM), 0.956; with Crizotinib + Pemetrexed (first compound 0.01 µM) it was 0.875; with Crizotinib + Pemetrexed (first compound 0.03162 µM), 1.09. In addition, the relative viability in the experiment with Crizotinib + Pemetrexed (first compound 0.1 µM) was determined as 1.04; with Crizotinib + Pemetrexed (first compound 0.3162 µM) it was 0.993; in the experiment with Carfilzomib + OSI-027 (first compound 0.003162 µM), 0.667; with Carfilzomib + OSI-027 (first compound 0.01 µM) it was 0.651; in the experiment with Carfilzomib + OSI-027 (first compound 0.03162 µM), 0.507; with Carfilzomib + OSI-027 (first compound 0.1 µM), 0.305. The relative viability was 0.767 in the experiment with Olaparib + Trametinib (first compound 0.08 µM), 0.597 with Olaparib + Trametinib (first compound 0.253 µM), 0.677 with Olaparib + Trametinib (first compound 2.53 µM) and 0.641 in the experiment with Olaparib + Trametinib (first compound 8 µM).

Turning to SW 1573, the relative viability worked out at 1.01 with Olaparib + Foretinib (first compound 0.08 µM); 0.971 in the experiment with Olaparib + Foretinib (first compound 0.253 µM); 0.737 in the experiment with Olaparib + Foretinib (first compound 2.53 µM); 0.629 with Olaparib + Foretinib (first compound 8 µM); 0.797 with Crizotinib + Pemetrexed (first compound 0.03162 µM); 0.749 with Crizotinib + Pemetrexed (first compound 0.1 µM). Also, the relative viability was 0.676 with Crizotinib + Pemetrexed (first compound 0.3162 µM); 0.908 with Crizotinib + Pemetrexed (first compound 1 µM); 0.717 with Carfilzomib + OSI-027 (first compound 0.001 µM); 0.771 with Carfilzomib + OSI-027 (first compound 0.003162 µM); 0.403 with Carfilzomib + OSI-027 (first compound 0.01 µM); 0.0525 with Carfilzomib + OSI-027 (first compound 0.03162 µM). Besides, the relative viability in the experiment with Carfilzomib + OSI-027 (first compound 0.1 µM) was 0.0647; in the experiment with Olaparib + Trametinib (first compound 0.08 µM), 0.591; with Olaparib + Trametinib (first compound 0.253 µM), 0.565; with Olaparib + Trametinib (first compound 2.53 µM), 0.515; with Olaparib + Trametinib (first compound 8 µM) it was 0.473.

As for A-427, the relative viability with Olaparib + Foretinib (first compound 0.08 µM) came out at 1.03; with Olaparib + Foretinib (first compound 0.253 µM), 1.01; with Olaparib + Foretinib (first compound 2.53 µM), 0.769; with Olaparib + Foretinib (first compound 8 µM), 0.834; with Crizotinib + Pemetrexed (first compound 0.01 µM) it was 0.967; in the experiment with Crizotinib + Pemetrexed (first compound 0.03162 µM), 0.954. The relative viability with Crizotinib + Pemetrexed (first compound 0.1 µM) turned out to be 0.957; in the experiment with Carfilzomib + OSI-027 (first compound 0.001 µM) it was 0.47; in the experiment with Carfilzomib + OSI-027 (first compound 0.003162 µM) it was 0.542; in the experiment with Carfilzomib + OSI-027 (first compound 0.01 µM), 0.395; with Carfilzomib + OSI-027 (first compound 0.03162 µM) it was 0.145; in the experiment with Carfilzomib + OSI-027 (first compound 0.1 µM), 0.132. Moreover, the relative viability with Olaparib + Trametinib (first compound 0.08 µM) worked out at 0.782; in the experiment with Olaparib + Trametinib (first compound 0.253 µM) it was 0.741; with Olaparib + Trametinib (first compound 2.53 µM), 0.719; with Olaparib + Trametinib (first compound 8 µM), 0.601.
